# Experimental data: PubChem BioAssay (NCI)
#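 Exposure lasted 48 hours, with cells grown in 96-well plates and compounds tested at five concentrations. At the TGI there is no net growth.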
# Columns and labels:
# Assay in all cases: DTP human tumour cell line panel, 48 h
# [1] = system: 786-0 renal
# [2] = system: A498 renal
# [3] = system: A549 NSCLC
# [4] = system: ACHN renal
# [5] = system: BT-549 breast
# [6] = system: CAKI-1 renal
# [7] = system: CCRF-CEM leukemia
# [8] = system: COLO 205 colon
# [9] = system: DU-145 prostate
# [10] = system: EKVX NSCLC
# [11] = system: HCC-2998 colon
# [12] = system: HCT-116 colon
# [13] = system: HCT-15 colon
# [14] = system: HL-60(TB) leukemia
# [15] = system: HOP-62 NSCLC
# [16] = system: HOP-92 NSCLC
# [17] = system: HS 578T breast
# [18] = system: HT29 colon
# [19] = system: IGROV1 ovarian
# [20] = system: K-562 leukemia
# [21] = system: KM12 colon
# [22] = system: LOX IMVI melanoma
# [23] = system: MALME-3M melanoma
# [24] = system: MCF7 breast
# [25] = system: MDA-MB-231 breast
# [26] = system: MDA-MB-435
# [27] = system: MDA-N
# [28] = system: MOLT-4 leukemia
# [29] = system: NCI-H226 lung
# [30] = system: NCI-H23 lung
# [31] = system: NCI-H460 lung
# [32] = system: NCI-H522 lung
# [33] = system: NCI/ADR-RES ovarian
# [34] = system: OVCAR-3 ovarian
# [35] = system: OVCAR-4 ovarian
# [36] = system: OVCAR-8 ovarian
# [37] = system: PC-3 prostate
# [38] = system: RPMI-8226 leukemia
# [39] = system: RXF 393 renal
# [40] = system: SF-268 CNS
# [41] = system: SF-295 CNS
# [42] = system: SF-539 CNS
# [43] = system: SK-MEL-2 melanoma
# [44] = system: SK-MEL-28 melanoma
# [45] = system: SK-MEL-5 melanoma
# [46] = system: SN12C renal
# [47] = system: SNB-75 CNS
# [48] = system: SR leukemia
# [49] = system: TK-10 renal
# [50] = system: U251 CNS
# [51] = system: UO-31 renal
# [52] = system: M14 melanoma
# [53] = system: OVCAR-5 ovarian
# [54] = system: SK-OV-3 ovarian
# [55] = system: SNB-19 CNS
# [56] = system: SW-620 colon
# [57] = system: T-47D breast
# [58] = system: UACC-257 melanoma
# [59] = system: UACC-62 melanoma
structure (smiles),measurement,setting,value
CS(=O)(=O)N1CC(CI)c2ccc(O)cc21 (centres undefined),TGI,[1],12.7 µM
same,TGI,[2],7.46 µM
same,TGI,[3],17 µM
same,TGI,[4],12.9 µM
same,TGI,[5],15.6 µM
same,TGI,[6],12.9 µM
same,TGI,[7],17.4 µM
same,TGI,[8],12.3 µM
same,TGI,[9],9.36 µM
same,TGI,[10],14.4 µM
same,TGI,[11],4.69 µM
same,TGI,[12],12.6 µM
same,TGI,[13],12.3 µM
same,TGI,[14],6.09 µM
same,TGI,[15],7.62 µM
same,TGI,[16],6.31 µM
same,TGI,[17],> 100 µM
same,TGI,[18],15.9 µM
same,TGI,[19],29.3 µM
same,TGI,[20],24.2 µM
same,TGI,[21],15 µM
same,TGI,[22],17.2 µM
same,TGI,[23],4.43 µM
same,TGI,[24],15.1 µM
same,TGI,[25],8.53 µM
same,TGI,[26],4.2 µM
same,TGI,[27],6.4 µM
same,TGI,[28],9.65 µM
same,TGI,[29],10.7 µM
same,TGI,[30],5.32 µM
same,TGI,[31],10.9 µM
same,TGI,[32],2.99 µM
same,TGI,[33],18 µM
same,TGI,[34],7.71 µM
same,TGI,[35],5.95 µM
same,TGI,[36],11.7 µM
same,TGI,[37],6.51 µM
same,TGI,[38],19.1 µM
same,TGI,[39],3.44 µM
same,TGI,[40],16.1 µM
same,TGI,[41],13.4 µM
same,TGI,[42],8.66 µM
same,TGI,[43],5.49 µM
same,TGI,[44],14.3 µM
same,TGI,[45],3.26 µM
same,TGI,[46],15.8 µM
same,TGI,[47],6.02 µM
same,TGI,[48],7.33 µM
same,TGI,[49],7.3 µM
same,TGI,[50],10 µM
same,TGI,[51],11.6 µM
N#Cc1nn(C(N)=O)c(N)c1C#N,TGI,[1],> 100 µM
same,TGI,[2],> 100 µM
same,TGI,[3],> 100 µM
same,TGI,[4],> 100 µM
same,TGI,[5],> 100 µM
same,TGI,[6],> 100 µM
same,TGI,[7],> 100 µM
same,TGI,[8],> 100 µM
same,TGI,[9],> 100 µM
same,TGI,[10],> 100 µM
same,TGI,[11],> 100 µM
same,TGI,[12],> 100 µM
same,TGI,[13],> 100 µM
same,TGI,[14],> 100 µM
same,TGI,[15],> 100 µM
same,TGI,[17],> 100 µM
same,TGI,[18],> 100 µM
same,TGI,[19],> 100 µM
same,TGI,[20],> 100 µM
same,TGI,[21],> 100 µM
same,TGI,[52],> 100 µM
same,TGI,[24],> 100 µM
same,TGI,[25],> 100 µM
same,TGI,[27],> 100 µM
same,TGI,[28],> 100 µM
same,TGI,[29],> 100 µM
same,TGI,[30],> 100 µM
same,TGI,[31],> 100 µM
same,TGI,[32],> 100 µM
same,TGI,[33],> 100 µM
same,TGI,[34],> 100 µM
same,TGI,[35],> 100 µM
same,TGI,[53],> 100 µM
same,TGI,[36],> 100 µM
same,TGI,[37],> 100 µM
same,TGI,[40],> 100 µM
same,TGI,[41],> 100 µM
same,TGI,[42],> 100 µM
same,TGI,[43],> 100 µM
same,TGI,[44],> 100 µM
same,TGI,[45],> 100 µM
same,TGI,[54],> 100 µM
same,TGI,[46],> 100 µM
same,TGI,[55],> 100 µM
same,TGI,[47],> 100 µM
same,TGI,[48],> 100 µM
same,TGI,[56],> 100 µM
same,TGI,[57],> 100 µM
same,TGI,[49],> 100 µM
same,TGI,[50],> 100 µM
same,TGI,[58],> 100 µM
same,TGI,[59],> 100 µM
same,TGI,[51],> 100 µM
